Assay results reported in patent US20100298141A1, “SUBSTITUTED PYRIDINE N-OXIDE HERBICIDES” (E. I. DU PONT DE NEMOURS AND COMPANY, priority 2007, published 2010).

Legend:
yellow nutsedge = assay: Test C pre-/postemergence test; type: in vivo, Cyperus esculentus; details: for Plant response rating, Nutsedge, Yellow: scale 0 to 100, 0 no effect, 100 complete control
How it was run: (§1)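 Test chemicals were formulated with surfactant in a non-phytotoxic solvent and sprayed both on freshly planted seeds (preemergence) and on 1- to 4-leaf plants of 2–18 cm (postemergence). Flooded-paddy pots received compound directly into 3 cm of standing water, maintained for the test.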

redroot pigweed = assay: Test A pre-/postemergence greenhouse test; type: in vivo, Amaranthus retroflexus; details: for Pigweed plant response rating: 0 to 100 scale
How it was run: (§2)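 Visual injury ratings against untreated controls, taken roughly ten days after treatment in greenhouse. Plants were sprayed postemergence at one- to two-leaf stage (2–10 cm tall); at the same time, seeded loam/sand soil received a directed preemergence spray. Formulation: non-phytotoxic solvent mixture with surfactant.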

cocklebur = assay: Test C pre-/postemergence test; type: in vivo, Xanthium strumarium; details: for Plant response rating, Cocklebur: scale 0 to 100, 0 no effect, 100 complete control
How it was run: as §1

[1] = system: common (oilseed) sunflower; assay: Test C pre-/postemergence test; type: in vivo, Helianthus annuus; details: for Sunflower plant response rating: preemergence, scale 0 (no effect) to 100 (complete control)
How it was run: as §1

wheat = assay: Test C pre-/postemergence test; type: in vivo, Triticum aestivum; details: for Wheat plant response rating: preemergence, scale 0 (no effect) to 100 (complete control); for Plant response rating, Wheat: scale 0 to 100, 0 no effect, 100 complete control
How it was run: as §1

corn [2] = assay: Test A pre-/postemergence greenhouse test; type: in vivo, Zea mays; details: for Corn plant response rating: 0 to 100 scale
How it was run: as §2

rice = assay: Test C flooded paddy test; type: in vivo, Oryza sativa; details: Flood
How it was run: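 Flooded 3 cm over soil; compound into paddy water; depth kept constant. Greenhouse 13–15 d.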

kochia = assay: Test C pre-/postemergence test; type: in vivo, Kochia scoparia; details: for Plant response rating, Kochia: scale 0 to 100, 0 no effect, 100 complete control
How it was run: as §1

eastern black nightshade = assay: Test C pre-/postemergence test; type: in vivo, Solanum ptycanthum
How it was run: as §1

johnsongrass = assay: Test C pre-/postemergence test; type: in vivo, Sorghum halepense; details: for Johnsongrass plant response rating: preemergence, scale 0 (no effect) to 100 (complete control); for Plant response rating, Johnsongrass: scale 0 to 100, 0 no effect, 100 complete control
How it was run: as §1

Italian ryegrass = assay: Test C pre-/postemergence test; type: in vivo, Lolium multiflorum; details: for Plant response rating, Ryegrass, Italian: scale 0 to 100, 0 no effect, 100 complete control
How it was run: as §1

giant foxtail = assay: Test C pre-/postemergence test; type: in vivo, Setaria faberii; details: for Plant response rating, Foxtail, Giant: scale 0 to 100, 0 no effect, 100 complete control
How it was run: as §1

bermudagrass = assay: Test C pre-/postemergence test; type: in vivo, Cynodon dactylon; details: for Plant response rating, Bermudagrass: scale 0 to 100, 0 no effect, 100 complete control
How it was run: as §1

wild oat = assay: Test C pre-/postemergence test; type: in vivo, Avena fatua; details: for Plant response rating, Oat, Wild: scale 0 to 100, 0 no effect, 100 complete control
How it was run: as §1

morningglory [3] = assay: Test C pre-/postemergence test; type: in vivo, Ipomoea coccinea; details: for Plant response rating, Morningglory: scale 0 to 100, 0 no effect, 100 complete control
How it was run: as §1

corn [4] = assay: Test C pre-/postemergence test; type: in vivo, Zea mays; details: for Plant response rating, Corn: scale 0 to 100, 0 no effect, 100 complete control
How it was run: as §1

morningglory [5] = assay: Test A pre-/postemergence greenhouse test; type: in vivo, Ipomoea spp.; details: for Morningglory plant response rating: 0 to 100 scale
How it was run: as §2

[6] = 31 g ai/ha, Preemergence, scale 0 to 100
[7] = 62 g ai/ha, preemergence, scale 0 (no effect) to 100 (complete control)
[8] = preemergence, 125 g ai/ha, scale 0 (no effect) to 100 (complete control)
[9] = Postemergence, 125 g ai/ha, 0 is no effect, 100 is complete control
[10] = Postemergence, 500 g ai/ha, 0 is no effect, 100 is complete control
[11] = Preemergence, 125 g ai/ha, 0 no effect, 100 complete control
[12] = Preemergence, 500 g ai/ha, 0 to 100 scale where 0 is no effect and 100 is complete control

Cn1nc(C(F)(F)F)c(C[S+]([O-])c2cccc[n+]2[O-])c1OC(F)F (stereo not drawn) [Compound 3]
Nutsedge, Yellow plant response rating (yellow nutsedge; [6]): 0
Nutsedge, Yellow plant response rating (yellow nutsedge; [7]): 100
Plant response rating (0 to 100), Nutsedge, Yellow (yellow nutsedge; Postemergence, 31 g ai/ha): 0
Plant response rating, Nutsedge, Yellow (yellow nutsedge; Postemergence, 62 g ai/ha): 0
Plant response rating, Nutsedge, Yellow (yellow nutsedge; Postemergence, 125 g ai/ha): 0
Plant response rating, Nutsedge, Yellow (yellow nutsedge; Postemergence, 250 g ai/ha): 0
Plant response rating (0 to 100), Nutsedge, Yellow (yellow nutsedge; Preemergence, 250 g ai/ha): 100
Nutsedge, Yellow plant response rating (yellow nutsedge; [8]): 100
Pigweed plant response rating (redroot pigweed; [9]): 80
Pigweed plant response rating (redroot pigweed; [10]): 90
Pigweed plant response rating (redroot pigweed; [11]): 100
Plant response rating, Pigweed (redroot pigweed; [12]): 100
Cocklebur plant response rating (cocklebur; [6]): 0
Cocklebur plant response rating (cocklebur; [7]): 0
Plant response rating (0 to 100), Cocklebur (cocklebur; Postemergence, 31 g ai/ha): 0
Plant response rating, Cocklebur (cocklebur; Postemergence, 62 g ai/ha): 0
Plant response rating, Cocklebur (cocklebur; Postemergence, 125 g ai/ha): 0
Plant response rating, Cocklebur (cocklebur; Postemergence, 250 g ai/ha): 10
Plant response rating (0 to 100), Cocklebur (cocklebur; Preemergence, 250 g ai/ha): 5
Cocklebur plant response rating (cocklebur; [8]): 0
Sunflower plant response rating ([1]; 62 g ai/ha): 15
Plant response rating (0 to 100), Sunflower ([1]; Preemergence, 250 g ai/ha): 95
Sunflower plant response rating ([1]; 125 g ai/ha): 70
Wheat plant response rating (wheat; 62 g ai/ha): 20
Plant response rating (0 to 100), Wheat (wheat; Postemergence, 31 g ai/ha): 0
Plant response rating (0 to 100), Wheat (wheat; Postemergence, 62 g ai/ha): 0
Plant response rating, Wheat (wheat; Postemergence, 125 g ai/ha): 0
Plant response rating, Wheat (wheat; Postemergence, 250 g ai/ha): 0
Plant response rating (0 to 100), Wheat (wheat; Preemergence, 250 g ai/ha): 80
Wheat plant response rating (wheat; 125 g ai/ha): 70
Corn plant response rating (corn [2]; [9]): 60
Corn plant response rating (corn [2]; [10]): 80
Corn plant response rating (corn [2]; [11]): 30
Plant response rating, Corn (corn [2]; [12]): 90
Plant response rating, Rice (rice; 31 g ai/ha, scale 0 to 100 (0 no effect, 100 complete control)): 0
Plant response rating, Rice (rice; 62 g ai/ha, scale 0 to 100, 0 no effect, 100 complete control, 13 to 15 days): 0
Plant response rating, Rice (rice; 125 g ai/ha, scale 0 to 100, 0 no effect, 100 complete control, 13 to 15 days): 60
Plant response rating, Rice (rice; 250 g ai/ha, scale 0 to 100 (0 no effect, 100 complete control)): 70
Kochia plant response rating (kochia; [6]): 80
Kochia plant response rating (kochia; [7]): 100
Plant response rating (0 to 100), Kochia (kochia; Postemergence, 31 g ai/ha): 5
Plant response rating, Kochia (kochia; Postemergence, 62 g ai/ha): 5
Plant response rating, Kochia (kochia; Postemergence, 125 g ai/ha): 10
Plant response rating, Kochia (kochia; Postemergence, 250 g ai/ha): 10
Plant response rating (0 to 100), Kochia (kochia; Preemergence, 250 g ai/ha): 100
Kochia plant response rating (kochia; [8]): 100
Nightshade plant response rating (eastern black nightshade; [6]): 85
Nightshade plant response rating (eastern black nightshade; [7]): 98
Plant response rating (0 to 100), Nightshade (eastern black nightshade; Preemergence, 250 g ai/ha): 100
Nightshade plant response rating (eastern black nightshade; [8]): 98
Johnsongrass plant response rating (johnsongrass; 62 g ai/ha): 98
Plant response rating (0 to 100), Johnsongrass (johnsongrass; Postemergence, 31 g ai/ha): 0
Plant response rating, Johnsongrass (johnsongrass; Postemergence, 62 g ai/ha): 0
Plant response rating, Johnsongrass (johnsongrass; Postemergence, 125 g ai/ha): 20
Plant response rating, Johnsongrass (johnsongrass; Postemergence, 250 g ai/ha): 20
Plant response rating (0 to 100), Johnsongrass (johnsongrass; Preemergence, 250 g ai/ha): 100
Johnsongrass plant response rating (johnsongrass; 125 g ai/ha): 100
Ryegrass, Italian plant response rating (Italian ryegrass; [6]): 60
Ryegrass, Italian plant response rating (Italian ryegrass; [7]): 100
Plant response rating (0 to 100), Ryegrass, Italian (Italian ryegrass; Postemergence, 31 g ai/ha): 0
Plant response rating (0 to 100), Ryegrass, Italian (Italian ryegrass; Postemergence, 62 g ai/ha): 0
Plant response rating, Ryegrass, Italian (Italian ryegrass; Postemergence, 125 g ai/ha): 0
Plant response rating, Ryegrass, Italian (Italian ryegrass; Postemergence, 250 g ai/ha): 40
Plant response rating (0 to 100), Ryegrass, Italian (Italian ryegrass; Preemergence, 250 g ai/ha): 100
Ryegrass, Italian plant response rating (Italian ryegrass; [8]): 100
Foxtail, Giant plant response rating (giant foxtail; [6]): 60
Foxtail, Giant plant response rating (giant foxtail; [7]): 90
Plant response rating (0 to 100), Foxtail, Giant (giant foxtail; Postemergence, 31 g ai/ha): 0
Plant response rating, Foxtail, Giant (giant foxtail; Postemergence, 62 g ai/ha): 40
Plant response rating, Foxtail, Giant (giant foxtail; Postemergence, 125 g ai/ha): 50
Plant response rating, Foxtail, Giant (giant foxtail; Postemergence, 250 g ai/ha): 55
Plant response rating (0 to 100), Foxtail, Giant (giant foxtail; Preemergence, 250 g ai/ha): 100
Foxtail, Giant plant response rating (giant foxtail; [8]): 98
Bermudagrass plant response rating (bermudagrass; [6]): 80
Bermudagrass plant response rating (bermudagrass; [7]): 100
Plant response rating (0 to 100), Bermudagrass (bermudagrass; Postemergence, 31 g ai/ha): 0
Plant response rating, Bermudagrass (bermudagrass; Postemergence, 125 g ai/ha): 50
Plant response rating, Bermudagrass (bermudagrass; Postemergence, 250 g ai/ha): 50
Plant response rating (0 to 100), Bermudagrass (bermudagrass; Preemergence, 250 g ai/ha): 100
Bermudagrass plant response rating (bermudagrass; [8]): 100
Oat, Wild plant response rating (wild oat; [6]): 30
Oat, Wild plant response rating (wild oat; [7]): 40
Plant response rating (0 to 100), Oat, Wild (wild oat; Postemergence, 31 g ai/ha): 0
Plant response rating, Oat, Wild (wild oat; Postemergence, 62 g ai/ha): 0
Plant response rating, Oat, Wild (wild oat; Postemergence, 125 g ai/ha): 0
Plant response rating, Oat, Wild (wild oat; Postemergence, 250 g ai/ha): 0
Plant response rating (0 to 100), Oat, Wild (wild oat; Preemergence, 250 g ai/ha): 100
Oat, Wild plant response rating (wild oat; [8]): 80
Morningglory plant response rating (morningglory [3]; [6]): 50
Morningglory plant response rating (morningglory [3]; [7]): 90
Plant response rating (0 to 100), Morningglory (morningglory [3]; Postemergence, 31 g ai/ha): 5
Plant response rating, Morningglory (morningglory [3]; Postemergence, 62 g ai/ha): 50
Plant response rating, Morningglory (morningglory [3]; Postemergence, 125 g ai/ha): 50
Plant response rating, Morningglory (morningglory [3]; Postemergence, 250 g ai/ha): 50
Plant response rating (0 to 100), Morningglory (morningglory [3]; Preemergence, 250 g ai/ha): 100
Morningglory plant response rating (morningglory [3]; [8]): 100
Corn plant response rating (corn [4]; [6]): 50
Corn plant response rating (corn [4]; [7]): 75
Plant response rating (0 to 100), Corn (corn [4]; Postemergence, 31 g ai/ha): 0
Plant response rating, Corn (corn [4]; Postemergence, 62 g ai/ha): 5
Plant response rating, Corn (corn [4]; Postemergence, 125 g ai/ha): 5
Plant response rating, Corn (corn [4]; Postemergence, 250 g ai/ha): 5
Plant response rating (0 to 100), Corn (corn [4]; Preemergence, 250 g ai/ha): 98
Corn plant response rating (corn [4]; [8]): 90
Morningglory plant response rating (morningglory [5]; [9]): 70
Morningglory plant response rating (morningglory [5]; [10]): 90
Morningglory plant response rating (morningglory [5]; [11]): 80
Plant response rating, Morningglory (morningglory [5]; [12]): 100
